Measurements: the NIST ThermoML archive (doi:10.1021/je800110r)
Numbers after ± are expanded uncertainties.

Conditions: 293.15 K, Liquid, Vibrating tube method

Measured: mass density

CCCCCCCCCC [decane]
751.6 ± 2.1 kg/m3: 31651 kPa | 31774 kPa | 31811 kPa | 31928 kPa | 31944 kPa
750.2 ± 2.1 kg/m3: 29376 kPa | 29439 kPa | 29494 kPa | 29549 kPa
750.4 ± 2.1 kg/m3: 29724 kPa | 29760 kPa | 29852 kPa | 29877 kPa | 29904 kPa | 29960 kPa
749.4 ± 2.1 kg/m3: 28146 kPa | 28261 kPa
750.3 ± 2.1 kg/m3: 29470 kPa | 29518 kPa | 29574 kPa | 29600 kPa | 29620 kPa | 29645 kPa | 29668 kPa | 29701 kPa | 29804 kPa
752 ± 2.1 kg/m3: 32324 kPa | 32345 kPa | 32420 kPa | 32445 kPa | 32478 kPa | 32498 kPa | 32612 kPa
751.5 ± 2.1 kg/m3: 31455 kPa | 31503 kPa | 31520 kPa | 31564 kPa | 31581 kPa | 31601 kPa | 31670 kPa | 31687 kPa | 31738 kPa | 31755 kPa | 31797 kPa
752.3 ± 2.1 kg/m3: 32825 kPa | 32888 kPa | 32993 kPa | 33014 kPa | 33038 kPa | 33103 kPa | 33260 kPa
751.7 ± 2.1 kg/m3: 31710 kPa | 31831 kPa | 31847 kPa | 31864 kPa | 31885 kPa | 31907 kPa | 31989 kPa | 32027 kPa | 32043 kPa
749.5 ± 2.1 kg/m3: 28177 kPa | 28205 kPa | 28236 kPa | 28289 kPa | 28321 kPa | 28349 kPa | 28373 kPa | 28405 kPa | 28454 kPa | 28552 kPa
751 ± 2.1 kg/m3: 30604 kPa | 30682 kPa | 30721 kPa | 30739 kPa | 30752 kPa | 30771 kPa | 30795 kPa | 30866 kPa | 30924 kPa
750.5 ± 2.1 kg/m3: 29780 kPa | 29828 kPa | 29931 kPa | 29996 kPa | 30098 kPa
751.8 ± 2.1 kg/m3: 31724 kPa | 32005 kPa | 32061 kPa | 32100 kPa | 32167 kPa | 32191 kPa | 32246 kPa | 32282 kPa
752.5 ± 2.1 kg/m3: 33150 kPa | 33239 kPa | 33304 kPa | 33334 kPa | 33440 kPa | 33484 kPa
752.2 ± 2.1 kg/m3: 32592 kPa | 32637 kPa | 32733 kPa | 32790 kPa | 32808 kPa | 32848 kPa | 32911 kPa
750.1 ± 2.1 kg/m3: 29232 kPa | 29263 kPa | 29295 kPa | 29326 kPa | 29350 kPa | 29396 kPa | 29419 kPa
750.6 ± 2.1 kg/m3: 30021 kPa | 30041 kPa | 30078 kPa | 30123 kPa
751.2 ± 2.1 kg/m3: 31028 kPa | 31074 kPa | 31090 kPa | 31106 kPa | 31243 kPa
751.9 ± 2.1 kg/m3: 31965 kPa | 32081 kPa | 32124 kPa | 32148 kPa | 32207 kPa | 32230 kPa | 32266 kPa | 32299 kPa | 32362 kPa | 32379 kPa | 32400 kPa | 32462 kPa | 32537 kPa
751.1 ± 2.1 kg/m3: 30703 kPa | 30813 kPa | 30826 kPa | 30845 kPa | 30887 kPa | 30908 kPa | 30942 kPa | 30955 kPa | 30977 kPa | 30995 kPa | 31014 kPa | 31044 kPa | 31057 kPa
751.3 ± 2.1 kg/m3: 31130 kPa | 31147 kPa | 31168 kPa | 31188 kPa | 31207 kPa | 31224 kPa | 31260 kPa | 31279 kPa | 31314 kPa | 31339 kPa | 31391 kPa | 31412 kPa | 31472 kPa
751.4 ± 2.1 kg/m3: 31295 kPa | 31356 kPa | 31375 kPa | 31425 kPa | 31441 kPa | 31489 kPa | 31542 kPa | 31615 kPa | 31636 kPa
752.8 ± 2.1 kg/m3: 33631 kPa | 33667 kPa | 33710 kPa | 33738 kPa | 33807 kPa | 33829 kPa | 33848 kPa | 33896 kPa
750.8 ± 2.1 kg/m3: 30273 kPa | 30328 kPa | 30358 kPa | 30419 kPa | 30479 kPa | 30506 kPa | 30546 kPa | 30560 kPa
752.1 ± 2.1 kg/m3: 32520 kPa | 32555 kPa | 32572 kPa | 32657 kPa | 32673 kPa | 32690 kPa | 32716 kPa | 32750 kPa | 32770 kPa
750.9 ± 2.1 kg/m3: 30393 kPa | 30455 kPa | 30576 kPa | 30591 kPa | 30620 kPa | 30641 kPa | 30659 kPa
752.7 ± 2.1 kg/m3: 33397 kPa | 33416 kPa | 33606 kPa | 33692 kPa | 33760 kPa
752.6 ± 2.1 kg/m3: 33373 kPa | 33465 kPa | 33514 kPa | 33536 kPa | 33555 kPa | 33576 kPa | 33649 kPa
753.1 ± 2.1 kg/m3: 34129 kPa
749.6 ± 2.1 kg/m3: 28425 kPa | 28482 kPa | 28507 kPa | 28527 kPa | 28643 kPa
750.7 ± 2.1 kg/m3: 30144 kPa | 30168 kPa | 30194 kPa | 30219 kPa | 30248 kPa | 30294 kPa
752.4 ± 2.1 kg/m3: 32865 kPa | 32930 kPa | 32953 kPa | 32972 kPa | 33061 kPa | 33080 kPa | 33132 kPa | 33180 kPa | 33203 kPa | 33218 kPa | 33279 kPa | 33349 kPa
749.9 ± 2.1 kg/m3: 28865 kPa | 28886 kPa | 28919 kPa | 28945 kPa | 28974 kPa | 28999 kPa | 29029 kPa | 29050 kPa | 29084 kPa | 29149 kPa
753 ± 2.1 kg/m3: 33961 kPa | 34050 kPa | 34069 kPa | 34112 kPa | 34148 kPa | 34176 kPa
749.7 ± 2.1 kg/m3: 28597 kPa | 28622 kPa | 28687 kPa | 28712 kPa | 28770 kPa | 28836 kPa
749.8 ± 2.1 kg/m3: 28663 kPa | 28749 kPa | 28807 kPa
750 ± 2.1 kg/m3: 29114 kPa | 29175 kPa | 29213 kPa
752.9 ± 2.1 kg/m3: 33791 kPa | 33919 kPa | 33934 kPa | 33976 kPa | 33992 kPa | 34010 kPa | 34029 kPa | 34090 kPa | 34198 kPa
